Test results reported in patent publication US20250388584A1, “TPK AGONIST AND METHOD FOR TREATING NEURODEGENERATIVE DISEASES USING SAME” (SHANGHAI RAISING PHARMACEUTICAL CO., LTD., priority 2022, published 2025).
Counter-ions that a name gives are not always drawn. Like-named read-outs stand apart in the source and are kept apart here.

Molecular target: TPK enzyme (Homo sapiens (Human), UniProt Q9H3S4)
Assay: TPK enzyme activity test
Format: biochemical
Conditions: for Emax: calculated with the effect of DMSO on TPK enzyme activity as 100%; for EC50: promoting effect on TPK enzyme activity

Chain of TPK enzyme (Q9H3S4 whole entry): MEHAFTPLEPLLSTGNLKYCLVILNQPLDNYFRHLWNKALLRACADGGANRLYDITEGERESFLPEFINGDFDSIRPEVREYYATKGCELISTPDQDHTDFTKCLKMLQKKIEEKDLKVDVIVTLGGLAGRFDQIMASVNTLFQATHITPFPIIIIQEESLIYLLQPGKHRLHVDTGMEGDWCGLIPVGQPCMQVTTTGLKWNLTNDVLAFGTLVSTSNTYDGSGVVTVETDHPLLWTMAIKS

Compound | Emax (read-out: Emax) [%] | EC50 [nM] | Emax [%]
O=C(CCn1cnc2c([nH]c3ccccc32)c1=O)N1CCN(c2cccc(C(F)(F)F)c2)CC1 [Compound 5, 3-(3-oxo-3-(4-(3-(trifluoromethyl)phenyl)piperazin-1-yl)propyl)-3,5-dihydro-4H-pyrimido[5,4-b]indol-4-one] | 139 | 2290 | 
Cc1ccc2[nH]c3c(=O)n(CCCN4CCN(c5cccc(Cl)c5Cl)CC4)cnc3c2c1 [Diformate salt of 52, 3-(3-(4-(2,3-dichlorophenyl)piperazin-1-yl)propyl)-8-methyl-3,5-dihydro-4H-pyrimido[5,4-b]indol-4-one] | 195 | 1280 | 
O=C(CCn1cnc2c(oc3ccc(F)cc32)c1=O)N1CCC(O)(c2cccc(C(F)(F)F)c2)CC1 [Compound 151, 8-fluoro-3-(3-(4-hydroxy-4-(3-(trifluoromethyl)phenyl)piperidin-1-yl)-3-oxopropyl)benzofuro[3,2-d]pyrimidin-4(3H)-one] | 189 | 5980 | 
COc1ccc2[nH]c(=O)c3c(c2c1)CN(CCCN1CCN(c2cccc(Cl)c2Cl)CC1)C3 [Compound 235, 2-(3-(4-(2,3-dichlorophenyl)piperazin-1-yl)propyl)-8-methoxy-1,2,3,5-tetrahydro-4H-pyrrolo[3,4-c]quinolin-4-one] | 137 | 572 | 
Cc1ccc2[nH]c3c(=O)n(CCC(=O)NCCN(C)c4cccc(C(F)(F)F)c4)cnc3c2c1 [Compound 93, N-(2-(methyl(3-(trifluoromethyl)phenyl)amino)ethyl)-3-(8-methyl-4-oxo-4,5-dihydro-3H-pyrimido[5,4-b]indol-3-yl)propanamide] | 192 |  | 
O=C(CCn1cnc2c([nH]c3ccc(F)cc32)c1=O)N1CCN(c2cccc(C(F)(F)F)c2)CC1 [Compound 39] | 139 |  | 
Cc1ccc2[nH]c3c(=O)n(CCC(=O)N4CCN(c5cc(Cl)ccc5C)CC4)cnc3c2c1 [Compound 42] | 156 | 3960 | 
COc1ccc2c(c1)N1CCN(c3ccccc3OC)CC1C(C(=O)NCCN1CCCCC1)C2 (centres unmarked) [Compound 139] | 198 | 950 | 
Cc1ccc2c(c1)-c1nc(=O)n(CCC(=O)N3CCN(c4cccc(Cl)c4Cl)CC3)cc1CO2 [Compound 214] |  | 2380 | 137.60
O=C(CCn1cnc2c(oc3ccc(F)cc32)c1=O)N1CCC(Cc2ccc(F)cc2)CC1 [Compound 150, 8-fluoro-3-(3-(4-(4-fluorobenzyl)piperidin-1-yl)-3-oxopropyl)benzofuro[3,2-d]pyrimidin-4(3H)-one] | 171 | 1990 | 
Cc1ccc2c(c1)[nH]c1c(=O)n(CCC(=O)N3CCN(c4cccc(Cl)c4Cl)CC3)cnc12 [Compound 13, 3-(3-(4-(2,3-dichlorophenyl)piperazin-1-yl)-3-oxopropyl)-7-methyl-3,5-dihydro-4H-pyrimido[5,4-b]indol-4-one] | 124 |  | 
Cc1ccc2oc3c(=O)n(CCC(=O)N4CCN(c5cccc(C(F)(F)F)c5)CC4)cnc3c2c1 [Compound 57, 8-methyl-3-(3-oxo-3-(4-(3-(trifluoromethyl)phenyl)piperazin-1-yl)propyl)benzofuro[3,2-d]pyrimidin-4(3H)-one] | 159 | 1190 | 
Cc1ccc2[nH]c3c(=O)n(CCC(=O)N4CCN(c5cccc(C(F)(F)F)c5)CC4)ccc3c2c1 [Compound 59, 6-methyl-2-(3-oxo-3-(4-(3-(trifluoromethyl)phenyl)piperazin-1-yl)propyl)-2,9-dihydro-1H-pyrido[3,4-b]indol-1-one] | 190 | 1380 | 
Cc1ccc2c(c1)[nH]c1c(=O)n(CCC(=O)N3CCN(c4ccc(Cl)cc4Cl)CC3)cnc12 [Compound 3, 3-(3-(4-(2,4-dichlorophenyl)piperazin-1-yl)-3-oxopropyl)-7-methyl-3,5-dihydro-4H-pyrimido[5,4-b]indol-4-one] | 136 | 1780 | 
CC(=O)c1ccc(N2CCN(C(=O)CCn3cnc4c([nH]c5ccc(C)cc54)c3=O)CC2)cc1 [Compound 35] | 126 |  | 
Cc1ccc2[nH]c3c(=O)n(CCC(=O)NCc4cccc(C(F)(F)F)c4)ccc3c2c1 [Compound 67, 3-(6-methyl-1-oxo-1,9-dihydro-2H-pyrido[3,4-b]indol-2-yl)-N-(3-(trifluoromethyl)benzyl)propanamide] | 187 | 1200 | 
O=C(CCN1c2ccccc2Sc2ccccc21)NCCN1CCOCC1 [Compound 200] | 168 | 2.94 | 
Cc1ccc2[nH]c3c(=O)n(CCC(=O)NCCNc4ccc5ccccc5c4)cnc3c2c1 [Compound 132, 3-(8-methyl-4-oxo-4,5-dihydro-3H-pyrimido[5,4-b]indol-3-yl)-N-(2-(naphthalen-2-ylamino)ethyl)propanamide] | 163 |  | 
COc1ccc2[nH]c(=O)c3c(ncn3CCCC(=O)N3CCN(c4cccc(Cl)c4Cl)CC3)c2c1 [Compound 231, 3-(4-(4-(2,3-dichlorophenyl)piperazin-1-yl)-4-oxobutyl)-8-methoxy-3,5-dihydro-4H-imidazo[4,5-c]quinolin-4-one] | 137 | 2260 | 
Cc1ccc2[nH]c3c(=O)n(CCC(=O)N4CCN(c5cccc(C(=O)O)c5)CC4)cnc3c2c1 [Compound 27, 3-(4-(3-(8-methyl-4-oxo-4,5-dihydro-3H-pyrimido[5,4-b]indol-3-yl)propanoyl)piperazin-1-yl)benzoic Acid] | 122 |  | 
Cc1ccc2[nH]c3c(=O)n(CCC(=O)NCc4cn5ccccc5n4)cnc3c2c1 [Compound 134, N-(imidazo[1,2-a]pyridin-2-ylmethyl)-3-(8-methyl-4-oxo-4,5-dihydro-3H-pyrimido[5,4-b]indol-3-yl)propanamide] | 125 |  | 
Cc1ccc2ncc3c(=O)n(CCCC(=O)N4CCN(c5cccc(Cl)c5Cl)CC4)cnc3c2c1 [Compound 217, 3-(4-(4-(2,3-dichlorophenyl)piperazin-1-yl)-4-oxobutyl)-9-methylpyrimido[5,4-c]quinolin-4(3H)-one] | 153 | 1470 | 
O=C(CCn1cnc2c([nH]c3ccc(C(F)(F)F)cc32)c1=O)N1CCN(Cc2cccc(C(F)(F)F)c2)CC1 [Compound 53, 3-(3-oxo-3-(4-(3-(trifluoromethyl)benzyl)piperazin-1-yl)propyl)-8-(trifluoromethyl)-3,5-dihydro-4H-pyrimido[5,4-b]indol-4-one] | 162 | 1580 | 
O=C1c2ccccc2CN1CCCN1c2ccccc2Sc2ccccc21 [Compound 189, 2-(3-(10H-phenothiazin-10-yl)propyl)isoindolin-1-one] | 180 | 1200 | 
Cc1ccc2[nH]c3c(=O)n(CCC(=O)N4CCN(c5cccc(Br)c5)CC4)cnc3c2c1 [Compound 18, 3-(3-(4-(3-bromophenyl)piperazin-1-yl)-3-oxopropyl)-8-methyl-3,5-dihydro-4H-pyrimido[5,4-b]indol-4-one] | 159 |  | 
Cc1ccc2[nH]c3c(=O)n(CCC(=O)N4CCN(c5cc(C(F)(F)F)cc(C(F)(F)F)c5)CC4)cnc3c2c1 [Compound 16, 3-(3-(4-(3,5-bis(trifluoromethyl)phenyl)piperazin-1-yl)-3-oxopropyl)-8-methyl-3,5-dihydro-4H-pyrimido[5,4-b]indol-4-one] | 144 | 360 | 
